According to BigSolDB 2.1:

CCCCCCCCC(=O)NCc1ccc(O)c(OC)c1
solubility (mole fraction)
Details	in DMSO	in MTBE	in acetone	in acetonitrile	in ethyl acetate	in methanol	in n-hexane	in water
293.2 K	0.257	0.019	0.161	0.0118	0.0625	0.219	4.06e-05	1.64e-05
298.2 K	0.315	0.0472	0.229	0.0357	0.117	0.28	7e-05	1.93e-05
303.2 K	0.403	0.114	0.299	0.0943	0.199	0.349	0.000119	2.32e-05
308.2 K	0.495	0.27	0.39	0.232	0.309	0.428	0.000189	2.71e-05
313.2 K	0.595	0.427	0.499	0.38	0.421	0.489	0.000296	3.24e-05
318.2 K	0.671	0.569	0.6	0.553	0.566	0.583	0.000457	3.7e-05
323.2 K	0.763	0.729	0.714	0.714	0.712	0.736	0.000595	4.27e-05
